According to patent publication US20220105051A1, “COMPOUNDS FOR INCREASING MHC-I EXPRESSION AND MODULATING HISTONE DEACETYLASE ACTIVITY” (Cava Healthcare Inc., priority 2019, published 2022):
“Also recorded” adds a separate entry of the source.

Legend:
[1] = tested on: MHC-I; assay: MHC-I surface expression by flow cytometry; format: cell-based, murine; conditions: A9 cells, 48 hours after treatment, flow cytometry
Method: A9 and TC-1 cell lines were trypsinized (0.05%, Gibco), washed twice with PBS (Gibco), and stained with allophycocyanin (APC) conjugated anti-mouse H-2K^b antibody (1:200, Biolegend) suspended in 150 μL of FACS buffer (PBS+2% FBS) for 20 minutes at 4° C. Cells were washed twice with PBS and re-suspended in 200 μL FACs buffer containing 1 μL of 7-aminoactinomycin (7AAD) viability stain (Biolegend). Flow cytometry was performed on the LSRII (BDBiosciences) and analysis was done using FlowJo (Flow cytometry Analysis Software).
The marine extract library was provided by Dr. Raymond J. Andersen (UBC). The marine invertebrate specimens were collected by SCUBA diving at a 40 metre depth from regions of high marine biodiversity in Papua New Guinea, Indonesia, Thailand, Sri Lanka, Dominica, Brazil, British Columbia, South Africa, and Norway 35. Previously curcuphenol was identified as the active component in one of the marine extracts showing induction of the APM, and since then two new generations of curcuphenol analogues were synthesized in the lab of Dr. Raymond Anderson. To evaluate the ability of these compounds to induce MHC-I surface expression, A9 cells were plated in 6 well plates at 10^5 cells/well and incubated for 24 hours at 37° C. in a 5% CO2 humidified atmosphere. After 24 hours the medium was removed and replaced with medium containing varying concentration of synthesized compounds (6.7 μg/mL, 20 μg/mL, 60 μg/mL). […] Following treatment, cells were incubated for 48 hours at 37° C. with 5% CO2 and humidified atmosphere. After incubation cells were subjected to flow cytometry.
Evaluation of MHC-I surface expression by flow cytometry. LMD:TAP-1 cells or A9 cells were plated in 6 well plates at a concentration of 10,000 cells per well in a 2 mL volume. The next day, cells were treated with the indicated concentrations of the compounds and incubated for 48 hours at 37° C. After incubation, the cells were trypsinized, washed and stained with APC-conjugated anti-mouse MHC-I (specifically anti-H-2K^b) antibody (Biolegend) and assessed by flow cytometry analysis.

[2] = Water solubility; format: physicochemical
[3] = literature; cited from earlier work
[4] = tested on: A9 metastatic tumour cells; assay: In vivo tumour trial; set-up: species or system C57BL/6 mice; conditions: daily i.p. for 12 days, P02-113 and P03-97-1 5.2 mg/kg, TSA 0.5 mg/kg
Method: (§1) The metastatic cell line, A9, was grown in the DMEM, as previously described without, the addition of antibiotics (penicillin and streptomycin, P/S). Once cells reached 75-80% confluence, they were trypsinized (0.05%, Gibco) and washed with HBSS (Hanks balanced salt solution). The cells were counted using the Bio-RAD TC20 automated cell counter and suspended to a concentration of […] in HBSS. Thirty-two synergistic female C57BL/6 mice, between the ages 6-8 weeks, were subcutaneously injected in the right flank with 50 μL containing 5×10^4 A9 metastatic tumour cells. Seven days following tumour inoculation i.p. treatment began daily for 12 days. Four treatment groups were studied, with eight animals per group. […] Body weights were measured three times a week and once tumours developed they were measured with calipers and tumour volume was calculated. Twelve days after starting treatment, mice were euthanized and tumours were collected and weighed. The tumours were then processed for flow cytometry analysis. Tumours were cut into small pieces and incubated RPMI (Gibco; with P/S 0.5%, Sodium pyruvate 1%, and L-glutamine 1%) and 3 mg/mL collagenase A (Roche) for one hour at 37° C. with shaking. Dissociated tumour cells were passed through a 100 μm filter and spun down at 15,000×RCF for 3 minutes. The pellet was washed once in FACs buffer (2% FBS in PBS) and spun down. The pellet was next suspended in red blood cell (RBC) lysis buffer and kept at room temperature for 5 minutes before being neutralized by the addition of 5 ml of PBS and spun down. If pellets were still found to contain RBCs this step was repeated. Once all RBCs were removed cells were suspended in FACs buffer to a concentration of 10^7 cells/mL. A total volume of 200 ul of cells from each tumour were added to a 96 well plate (Falcon) and incubated with Fc Blocker (Biolegend, 1:400) for twenty minutes at 4° C. The 96 well plate was spun down at 1,200 rmp for three minutes and supernatant was removed. The cells were then suspended in 150 ul of FACs buffer containing anti-CD8a (PE-Cy7, 1:200, eBioscience) and CD4 (APC, 1:200, Biolegend) antibodies and incubated at 4° Celsius for 20 minutes. The cells were washed twice and spun down using FACs buffer before being to flow cytometry tubes in a final volume of 200 ul of FACs buffer containing 7AAD (Biolegend 1:200). Flow cytometry was performed on LSRII (BDBiosciences) and analysis was done using FlowJo (Flow cytometry Analysis Software).
Treatment of tumour-bearing mice with identified compounds. 5×10^4 A9 cells suspended in HBSS were subcutaneously (s.c.) transplanted into the right flank of 32 eight-week-old female C57BI/6 mice, as previously described 75. […] Body weight and tumours (once established) were measured every 2-4 days (more often as tumour size increased). Tumours were measured using calipers and volume was calculated as following: tumour volume=length×width^2. The tumour growth rate was assessed using methods previously described^28.

[5] = tested on: CD4+ and CD8+ T cells; assay: Analysis of tumour-infiltrating lymphocytes; format: in vivo, C57BL/6 mice; conditions: after 12 days of treatment, flow cytometry
Method: as §1
Analysis of tumour-infiltrating lymphocytes (TILs). Tumour-infiltrating T lymphocyte (either CD4^+ or CD8^+ T cells) infiltration was evaluated in tumours of mice following 2-week treatment with either compounds or controls. Tumours at the site of initial injection were removed from tumour-bearing mice. Following tumour dissociation in the presence of collagenase A (Roche) and erythrocyte lysis, the tumour cells were then washed and prepared as single-cell suspensions to detect TILs. Before staining with antibodies, the cells were incubated with Fc Blocker (Ebiosciences) for 20 minutes at 4° C. The tumour cells were then washed and stained with anti-CD4-APC (Biolegend), anti-CD8-PECy7 (eBiosciences) and 7-AAD (Biolegend) viability stain. Using flow cytometry, 7-AAD positive dead cells were gated out and the remaining population was assessed for CD4^+ and CD8^+ expression. Data were acquired using a BD™ LSR II flow cytometer (BD Biosciences) with FACSDiva™ software and analyzed with FlowJo software (Treestar).

[6] = tested on: MHC-I; conditions: earlier work of the lab; cited from earlier work
[7] = tested on: TAP-1; assay: High-throughput cell-based screen for TAP-1 induction (EGFP under the TAP-1 promoter); set-up: species or system murine; conditions: LMD:TAP-1 cells, 10 ng/mL
Description: Identification of marine natural product extracts with the ability to promote up-regulation of TAP-1 and […] expression in cancer cells: A high-throughput cell-based screen was used for identification of candidate compounds that increase the expression of TAP-1 in the LMD murine metastatic prostate cell line. To assess the induction of TAP-1 expression we used the LMD:TAP-1 cell line, which was transfected with a vector containing EGFP under the TAP-1 promoter^44. The Cellomics™ Arrayscan VTI automated fluorescence imager was used to determine the cell numbers based on DNA staining and the average GFP fluorescence intensity which correlates to the levels of TAP-1 induction (FIG. 24A). […]
Cell-based screening assay. […] Image acquisition, segmentation and analysis of micro plates were carried out using the Cellomics™ Arrayscan V^TI automated fluorescence imager (Thermo Fisher Scientific). […] The target activation algorithm was used to identify the nuclei based on Hoechst fluorescence intensity, apply a cytoplasmic mask and quantitate GFP fluorescence intensity within the cytoplasmic mask area. Average GFP fluorescence intensity (intensity per cell per pixel) and total number of cells per well were determined. […]

Cc1ccc(CCCC(O)C(C)(C)O)c(O)c1 (stereo not shown) [P04-149]
induction of MHC-I expression at the cell surface [1]: increases MHC-I expression
water solubility [2]: water soluble

CC(/C=C/C(=O)NO)=C\[C@@H](C)C(=O)c1ccc(N(C)C)cc1 [TSA, Trichostatin A, reference compound]
detection after 24 hours [3]: no detection
half-life [3]: under ten
tumour volume / tumour growth compared to vehicle control ([4]; A9 tumours): reduced
body weight [4]: remained stable; also recorded: no significant changes
CD4+ T cell infiltration of tumours [5]: no significant infiltration or difference; also recorded: did not appear to increase
CD8+ T cell (CTL) infiltration of tumours [5]: greatest CD8+ infiltration; also recorded: increase in the CTL infiltration
restoring the MHC-I on A9 cells [6]: effective in restoring the MHC-I

B1: IFN-γ: known inducer of TAP-1 expression, positive control (protein, UniProt P01579 24-161, looked up)
Interferon gamma: QDPYVKEAENLKKYFNAGHSDVADNGTLFLGILKNWKEESDRKIMQSQIVSFYFKLFKNFKDDQSIQKSVETIKEDMNVKFFNSNKKKRDDFEKLTNYSVTDLNVQRKAIHELIQVMAELSPAAKTGKRKRSQMLFRG
TAP promoter-induced GFP expression [7]: high level of GFP expression
